Laboratory results from patent US7977354B2, “Heterocyclic compounds, their preparation and their use as medicaments, in particular as anti-alzheimer agents” (priority 2005, dated 2011).
Like-named read-outs stand apart in the source and are kept apart here.

Tests used:
[1] = target: T1, human acetylcholinesterase (Homo sapiens, UniProt P22303); experiment: biochemical; type: biochemical; conditions: for Inhibition of human acetylcholinesterase (apparent IC50), result in words: tested until solubility limit
T1 construct: human erythrocyte membranes as a AChE source; from tissue; host or cells: human erythrocyte membranes
T1 sequence (P22303 32-617 isoform P22303-2 limits assumed): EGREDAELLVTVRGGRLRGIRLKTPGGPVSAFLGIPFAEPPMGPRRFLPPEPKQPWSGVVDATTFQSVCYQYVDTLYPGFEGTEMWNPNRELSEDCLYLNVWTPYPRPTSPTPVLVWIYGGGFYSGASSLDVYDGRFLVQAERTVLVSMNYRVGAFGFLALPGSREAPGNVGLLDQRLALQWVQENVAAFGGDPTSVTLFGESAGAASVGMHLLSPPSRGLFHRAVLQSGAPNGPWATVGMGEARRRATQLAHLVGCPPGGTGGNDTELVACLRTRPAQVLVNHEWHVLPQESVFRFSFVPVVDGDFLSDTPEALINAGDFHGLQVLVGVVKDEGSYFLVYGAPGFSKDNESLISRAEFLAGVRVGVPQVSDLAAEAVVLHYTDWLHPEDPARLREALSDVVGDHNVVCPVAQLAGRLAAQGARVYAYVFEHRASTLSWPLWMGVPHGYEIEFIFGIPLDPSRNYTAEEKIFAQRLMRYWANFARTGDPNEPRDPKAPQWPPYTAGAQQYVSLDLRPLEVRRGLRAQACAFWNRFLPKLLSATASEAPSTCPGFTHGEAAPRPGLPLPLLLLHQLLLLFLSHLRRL

muscarinic receptors = experiment: Muscarinic receptors binding, radioligand [3H]-N-methylscopolamine, rat striatal membranes; conditions: at 10^−5 M
Procedure: The ability of prodrugs of formula G and/or inhibitors of formula G+ to nonselectively bind muscarinic receptors was evaluated with conventional radioligand binding method.
The ability of bio precursors and/or inhibitors to nonselectively bind muscarinic receptors was evaluated with conventional radioligand binding method.
The assay mixture (PBS Buffer, 300 μL), rat striatal membranes as a muscarinic receptors source (1 g/L, 100 μL), unknown compound at various concentrations (50 μL) and ^3H—N-methylscopolamine as specific radioligand of muscarinic receptors. The 60.0 minutes incubation time at room temperature was selected after preliminary experiments performed to ensure that the equilibrium between studied ligand and radioligand on muscarinic receptors is reached. The reaction was stopped by rapid vacuum filtration through Whatman GF/C filter paper (pre-soaked in a solution of polyethylenimine (0.1%) to reduce binding to filters). Filters were subsequently washed with ice-cold buffer (PBS Buffer, 3×1.5 mL) and placed overnight in 3 mL of Ready-Safe scintillation cocktail (Beckman Coulter, Inc.). Radioactivity was measured using a Wallac liquid scintillation counter. Each experiment was carried out twice in duplicate.

Swiss albinos mice = experiment: Acute toxicity in mice; type: in vivo; conditions: female and male Swiss albinos mice, intraperitoneal injection; compound 67 tested under its inclusion form as compound 82
Procedure: The Acute toxicity studies were carried out using female and male Swiss albinos mice (25-35 g). Most of the compounds show a very low toxicity, namely with a DL50 higher than 10 mg/kg. […] The pharmacokinetic study was carried out using female and male Swiss albinos mice for the determination of half-life and distribution volume of a compound of the invention
The toxicity studies were carried out using female and male Swiss albinos mice (25-35 g). Animals were kept in a temperature-controlled environment (23±2° C.) with a 12 h light-dark cycle and food and water were freely available. The animals were divided into one control group and five treated groups, each group consisting of six animals. The control group received saline and each treated group received the studied ligand in a dose of 1, 3, 10, 30 and 100 mg/kg by intraperitoneal injection. The animals were observed continuously for 3 h, and then they were observed each hour during 72 h after administering the compound in order to observe any changes in general behaviour or other physiological activities. At the end of the experiment, animals were sacrificed by cervical displacement.

[2] = Pharmacokinetic: half-life and distribution volume in mice, plasma HPLC; conditions: both, Swiss albino, mouse, in vivo, ip, 10 mg/kg
[3] = human erythrocyte membranes, acetylthiocholine iodide, pH 7.4, 10 min, room temperature, read-out: Inhibition of human acetylcholinesterase (apparent IC50)

| SMILES | IC50 [1, 3] | Displacement of [^3H] N-methylscopolamine from muscarinic receptors (muscarinic receptors) | Inhibition of human acetylcholinesterase (apparent IC50), result in words ([1]; human erythrocyte membranes) | also measured |
| --- | --- | --- | --- | --- |
| CCOC(=O)c1cc2ccc(OC(=O)N(C)C)cc2[n+](C)c1 [Compound 1D, ethyl 1-methyl-7-(N,N-dimethylcarbamate)quinolinium-3-carboxylate triflate] | 0.5 µM | 0% at 10^−5 M |  |  |
| CCOC(=O)c1cc2c(OC(=O)N(C)C)cccc2[n+](C)c1 [Compound 2E, Ethyl 5-(N,N-dimethylcarbamate)-1-methylquinolinium-3-carboxylate triflate] | 0.007 µM | 0% at 10^−5 M |  |  |
| COC(=O)c1cc2c(OC(=O)N(C)C)cccc2[n+](C)c1 [Compound 67E, Methyl 5-(N,N-dimethylcarbamate)-1-methylquinolinium-3-carboxylate triflate] |  | 0% at 10^−5 M |  | IC50 [1]: 0.11 µM |
| CNC(=O)c1cc2c(OC(=O)N(C)C)cccc2[n+](C)c1 [Compound 68D, 5-(N,N-dimethylcarbamate)-1-methyl-3-(N-methylcarboxamido)quinolinium triflate] | 0.029 µM | 0% à 10^−5 M |  |  |
| CN(C)C(=O)Oc1cccc2c1cc(C(=O)N(C)C)c[n+]2C [Compound 69D, 5-(N,N-dimethylcarbamate)-3-(N,N-dimethylcarboxamido)-1-methylquinolinium triflate] | 0.015 µM | 0% à 10^−5 M |  |  |
| CN(C)C(=O)Oc1cccc2c1cc(C(=O)N1CCOCC1)c[n+]2C [Compound 70D, 5-(N,N-dimethylcarbamate)-1-methyl-3-(morpholinocarboxy)quinolinium triflate] | 0.86 µM | 0% à 10^−5 M |  |  |
| CCNC(=O)Oc1cccc2c1cc(C(=O)OC)c[n+]2C [Compound 76B, Methyl 5-(N-ethylcarbamate)-1-methylquinolinium-3-carboxylate triflate] | 6 µM |  |  |  |
| CCCNC(=O)c1cc2ccc(OC(=O)N(C)C)cc2[n+](C)c1 [Compound 78C, 7-(N,N-dimethylcarbamate)-3-(N-propylcarboxamido)-1-methylquinolinium triflate] | 50 µM | 20% at 10^−5 M |  |  |
| CCOC(=O)C1=CN(C)c2cc(OC(=O)N(C)C)ccc2C1 [Example 1, ethyl 1-methyl-7-(N,N-dimethylcarbamate)-1,4-dihydroquinoline-3-carboxylate] |  | 0% at 10^−5 M | No inhibition until |  |
| CCOC(=O)C1=CN(C)c2cccc(OC(=O)N(C)C)c2C1 [Example 2, ethyl 1-methyl-5-(N,N-dimethylcarbamate)-1,4-dihydroquinoline-3-carboxylate] |  | 0% at 10^−5 M | No inhibition until |  |
| COC(=O)C1=CN(C)c2cccc(OC(=O)N(C)C)c2C1 [Example 67, methyl 5-(N,N-dimethylcarbamate)-1-methyl-1,4-dihydroquinoline-3-carboxylate] |  | 0% at 10^−5 M | No inhibition until | Acute toxicity (DL50) (Swiss albinos mice): 25 mg/kg; C0 [2]: 806 nM; half-life ([2]; Plasmatic half-life time T1/2, mice, intraperitoneal injection of 10 mg/kg of compound 67 under its inclusion form (example 82)): 14 min |
| CNC(=O)C1=CN(C)c2cccc(OC(=O)N(C)C)c2C1 [Example 68, 5-(N,N-dimethylcarbamate)-1-methyl-3-(N-methylcarboxamido)-1,4-dihydroquinoline] |  | 0% at 10^−5 M | No inhibition until |  |
| CN(C)C(=O)Oc1cccc2c1CC(C(=O)N1CCOCC1)=CN2C [Example 70, morpholine 4-[5-(N,N-dimethylcarbamate)-1-methyl-1,4-dihydroquinolyl-3-carbonyl]] |  | 0% à 10^−5 M | No inhibition until |  |
| CN(C)C(=O)Oc1cccc2c[n+](C)ccc12 [Example 71, 5-(N,N-dimethylcarbamate)-2-methylisoquinolinium triflate] | 0.05 µM |  |  |  |
| CN(C)C(=O)Oc1ccc2cc[n+](C)cc2c1 [Example 72, 7-(N,N-Dimethylcarbamate)-2-Methylisoquinolinium Triflate] | 5 µM |  |  |  |
| COC(=O)c1cc2c(OC(=O)N(C)C)cc(OC(=O)N(C)C)cc2[n+](C)c1 [Example 73, Methyl 5,7-Bis(N,N-Dimethylcarbamate)-1-Methylquinolinium-3-Carboxylate Triflate] | > 10 µM |  |  |  |
| COC(=O)c1cc2cccc(OC(=O)N(C)C)c2[n+](C)c1 [Example 74, Methyl 8-(N,N-Dimethylcarbamate)-1-Methylquinolinium-3-Carboxylate Triflate] | 1.4 µM |  |  |  |
| CN(C)C(=S)Oc1cccc2c[n+](C)ccc12 [Example 75, 2-Methyl-5-(N,N-Dimethylthiocarbamate)-O-Isoquinolinium Triflate] | > 10 µM |  |  |  |
| CCNC(=O)Oc1cccc2c1CC(C(=O)OC)=CN2C [Example 76, Methyl 1-Methyl-5-(N-Ethylcarbamate)-1,4-Dihydroquinoline-3-Carboxylate] |  |  | No inhibition until |  |
| CCOC(=O)c1cc2cccc(OC(=O)N(C)C)c2[n+](C)c1 [Example 77, Ethyl 1-Methyl-8-(N,N-Dimethylcarbamate)Quinolinium-3-Carboxylate Triflate] | 8 µM |  |  |  |
| CCCNC(=O)C1=CN(C)c2cc(OC(=O)N(C)C)ccc2C1 [Example 78, 1-Methyl-3-(N-Propylcarboxamido)-7-(N,N-Dimethylcarbamate)-1,4-Dihydroquinoline] |  | 25% at 10^−5 M | No inhibition until |  |
| CCOC(=O)c1ccc[n+](Cc2ccc(OC(=O)N(C)C)cc2)c1 [Example 80] | 0.227 µM |  |  |  |
